pIC50: −log10 of the molar value. Active and inactive are the calls of the source.
Experiments:
MDA-MB-231 [1] = experiment: Antitumor activity against human MDA-MB-231 cells harboring wild-type BRCA incubated for 72 hrs by MTT assay; type: functional, cell-based; details: MDA-MB-231, 72 h
MDA-MB-468 = experiment: Antitumor activity against human MDA-MB-468 cells harboring wild-type BRCA incubated for 72 hrs by MTT assay; type: functional, cell-based; details: MDA-MB-468, 72 h
HCC1937 = experiment: Antitumor activity against BRCA 1-deficient human HCC1937 cells incubated for 72 hrs by MTT assay; type: functional, cell-based; details: HCC1937, 72 h
MDA-MB-436 = experiment: Antitumor activity against BRCA 1-deficient human MDA-MB-436 cells incubated for 72 hrs by MTT assay; type: functional, cell-based; details: MDA-MB-436, 72 h
[2] = Cytotoxicity against human MCF-10A cells incubated for 72 hrs by MTT assay; type: toxicity, cell-based
MDA-MB-231 [3] = experiment: Induction of apoptosis in human MDA-MB-231 cells as increase in red fluorescence at 5 uM incubated for 24 hrs by Calcein AM/PI staining based confocal microscopy; type: functional, cell-based
MDA-MB-231 [4] = experiment: Effect on RAF expression in human MDA-MB-231 cells at 5 uM incubated for 24 hrs by Western blot analysis; type: functional, cell-based
MDA-MB-231 [5] = experiment: Effect on CRAF expression in human MDA-MB-231 cells at 5 uM incubated for 24 hrs by Western blot analysis; type: functional, cell-based
MDA-MB-231 [6] = experiment: Effect on MEK phosphorylation in human MDA-MB-231 cells at 5 uM incubated for 24 hrs by Western blot analysis; type: functional, cell-based
MDA-MB-231 [7] = experiment: Effect on ERK1/2 phosphorylation in human MDA-MB-231 cells at 5 uM incubated for 24 hrs by Western blot analysis; type: functional, cell-based
MDA-MB-231 [8] = experiment: Effect on total MEK in human MDA-MB-231 cells at 5 uM incubated for 24 hrs by Western blot analysis; type: functional, cell-based
MDA-MB-231 [9] = experiment: Effect on total ERK1/2 in human MDA-MB-231 cells at 5 uM incubated for 24 hrs by Western blot analysis; type: functional, cell-based
MDA-MB-231 [10] = experiment: Induction of DNA damage in human MDA-MB-231 cells assessed as increase in olive tail moments at 5 uM incubated for 24 hrs by Comet assay; type: functional, cell-based
MDA-MB-231 [11] = experiment: Induction of ROS generation in human MDA-MB-231 cells at 5 uM incubated for 24 hrs by DCFH-DA staining based flow cytometric analysis; type: functional, cell-based
[12] = target: Poly [ADP-ribose] polymerase 1 (Homo sapiens, UniProt P09874); experiment: Inhibition of PARP1 (unknown origin) using histone as substrate incubated for 60 mins by ELISA
Chain of Poly [ADP-ribose] polymerase 1 (P09874 whole entry): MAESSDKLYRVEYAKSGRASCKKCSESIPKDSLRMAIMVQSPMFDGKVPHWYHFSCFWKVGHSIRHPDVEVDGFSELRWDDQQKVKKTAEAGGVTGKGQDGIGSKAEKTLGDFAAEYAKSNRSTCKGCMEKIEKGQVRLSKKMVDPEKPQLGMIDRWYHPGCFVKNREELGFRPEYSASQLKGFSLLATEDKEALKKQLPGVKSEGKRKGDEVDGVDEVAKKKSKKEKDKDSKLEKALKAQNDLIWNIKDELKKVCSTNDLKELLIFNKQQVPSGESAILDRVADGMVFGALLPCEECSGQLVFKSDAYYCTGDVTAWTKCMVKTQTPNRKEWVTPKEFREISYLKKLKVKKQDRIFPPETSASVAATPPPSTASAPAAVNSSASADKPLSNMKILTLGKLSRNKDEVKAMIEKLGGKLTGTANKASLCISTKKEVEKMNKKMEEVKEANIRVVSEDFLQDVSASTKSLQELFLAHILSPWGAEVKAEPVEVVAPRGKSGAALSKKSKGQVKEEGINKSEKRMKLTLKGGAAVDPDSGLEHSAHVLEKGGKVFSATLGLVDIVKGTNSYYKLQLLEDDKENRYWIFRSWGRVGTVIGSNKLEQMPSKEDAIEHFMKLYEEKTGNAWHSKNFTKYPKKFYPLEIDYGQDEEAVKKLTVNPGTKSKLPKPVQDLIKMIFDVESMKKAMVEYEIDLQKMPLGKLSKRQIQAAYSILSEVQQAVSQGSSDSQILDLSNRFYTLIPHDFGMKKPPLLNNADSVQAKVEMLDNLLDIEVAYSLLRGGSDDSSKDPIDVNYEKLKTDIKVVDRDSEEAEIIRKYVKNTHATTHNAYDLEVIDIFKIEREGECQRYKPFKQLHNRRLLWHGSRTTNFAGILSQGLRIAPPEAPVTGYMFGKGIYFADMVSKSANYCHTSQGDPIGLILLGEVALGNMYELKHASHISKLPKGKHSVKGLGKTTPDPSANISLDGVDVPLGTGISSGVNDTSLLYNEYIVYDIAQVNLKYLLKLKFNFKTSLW

MDA-MB-231 [13] = experiment: Induction of DNA damage in human MDA-MB-231 cells assessed as increase in gamma-H2AX level at 5 uM incubated for 24 hrs by immunofluorescence based analysis; type: functional, cell-based
MDA-MB-231 [14] = experiment: Induction of apoptosis in human MDA-MB-231 cells at 5 uM incubated for 24 hrs by Annexin V-FITC/PI staining based flow cytometry relative to control; type: functional
MDA-MB-231 [15] = experiment: Induction of depolarization of mitochondrial membrane potential in human MDA-MB-231 cells at 5 uM incubated for 24 hrs by JC-1 staining based flow cytometry relative to control; type: functional
MDA-MB-231 [16] = experiment: Anti-migration activity in human MDA-MB-231 cells assessed as wound closure area at 1 uM incubated for 24 hrs by wound healing assay (reference value: 75.6 %); type: functional
MDA-MB-231 [17] = experiment: […] activity in human MDA-MB-231 cells at 1 uM incubated for 24 hrs by wound healing assay; type: functional, cell-based
MDA-MB-231 [18] = experiment: Induction of apoptosis in human MDA-MB-231 cells assessed as increase in Bax level at 5 uM incubated for 24 hrs by Western blot analysis; type: functional, cell-based
MDA-MB-231 [19] = experiment: Induction of apoptosis in human MDA-MB-231 cells assessed as decrease in Bcl-2 level at 5 uM incubated for 24 hrs by Western blot analysis; type: functional, cell-based
MDA-MB-231 [20] = experiment: Induction of apoptosis in human MDA-MB-231 cells assessed as increase in cleaved PARP level at 5 uM incubated for 24 hrs by Western blot analysis; type: functional, cell-based
MDA-MB-231 [21] = experiment: Induction of apoptosis in human MDA-MB-231 cells assessed as increase in cleaved caspase-3 level at 5 uM incubated for 24 hrs by Western blot analysis; type: functional, cell-based
MDA-MB-231 [22] = experiment: Induction of apoptosis in human MDA-MB-231 cells assessed as increase in cleaved caspase-9 level at 5 uM incubated for 24 hrs by Western blot analysis; type: functional, cell-based
MDA-MB-231 [23] = experiment: Antitumor activity against human MDA-MB-231 cells xenografted in BALB/c nude mouse at 38 mg/kg, ip administered on every 2 days for 28 days relative to control; type: functional; details: MDA-MB-231, 672 h, time 28 day, read-out: TGI
[24] = Toxicity in BALB/c nude mouse xenografted with human MDA-MB-231 cells assessed as body weight change at 38 mg/kg, ip administered on every 2 days for 28 days; type: organism-based; details: in vivo, 672 h, time 28 day
[25] = Toxicity in BALB/c nude mouse xenografted with human MDA-MB-231 cells assessed as drug tolerance at 38 mg/kg, ip administered on every 2 days for 28 days; type: organism-based; details: in vivo, 672 h, time 28 day
MDA-MB-231 [26] = experiment: Antitumor activity against human MDA-MB-231 cells xenografted in BALB/c nude mouse assessed as increase in apoptotic cells at 38 mg/kg, ip administered on every 2 days for 28 days by H and E staining based analysis; type: functional, organism-based; details: time 28.0 day
MDA-MB-231 [27] = experiment: Antitumor activity against human MDA-MB-231 cells xenografted in BALB/c nude mouse assessed as increase in necrotic cells at 38 mg/kg, ip administered on every 2 days for 28 days by H and E staining based analysis; type: functional, organism-based; details: time 28.0 day
MDA-MB-231 [28] = experiment: Antitumor activity against human MDA-MB-231 cells xenografted in BALB/c nude mouse assessed as decrease in Ki-67 expression at 38 mg/kg, ip administered on every 2 days for 28 days by H and E staining based analysis; type: functional, organism-based; details: time 28.0 day
[29] = Toxicity in BALB/c nude mouse xenografted with human MDA-MB-231 cells assessed as damage in heart at 38 mg/kg, ip administered on every 2 days for 28 days by H and E staining based analysis; type: organism-based; details: in vivo, 672 h, time 28 day
[30] = Toxicity in BALB/c nude mouse xenografted with human MDA-MB-231 cells assessed as damage in liver at 38 mg/kg, ip administered on every 2 days for 28 days by H and E staining based analysis; type: organism-based; details: in vivo, 672 h, time 28 day
[31] = Toxicity in BALB/c nude mouse xenografted with human MDA-MB-231 cells assessed as damage in spleen at 38 mg/kg, ip administered on every 2 days for 28 days by H and E staining based analysis; type: organism-based; details: in vivo, 672 h, time 28 day
[32] = Toxicity in BALB/c nude mouse xenografted with human MDA-MB-231 cells assessed as damage in lung at 38 mg/kg, ip administered on every 2 days for 28 days by H and E staining based analysis; type: organism-based; details: in vivo, 672 h, time 28 day
[33] = Toxicity in BALB/c nude mouse xenografted with human MDA-MB-231 cells assessed as damage in kidney at 38 mg/kg, ip administered on every 2 days for 28 days by H and E staining based analysis; type: organism-based; details: in vivo, 672 h, time 28 day

COc1cc(OC)c(/C=C/S(=O)(=O)Cc2ccc(OC)c(NCCCC(=O)N3CCN(C(=O)c4cc(Cc5n[nH]c(=O)c6ccccc56)ccc4F)CC3)c2)c(OC)c1
active: Activity (MDA-MB-231 [3]) | Activity (MDA-MB-231 [4]) | Activity (MDA-MB-231 [5]) | Activity (MDA-MB-231 [6]) | Activity (MDA-MB-231 [7]) | Activity (MDA-MB-231 [10]) | Activity (MDA-MB-231 [11]) | Activity (MDA-MB-231 [13]) | Activity (MDA-MB-231 [15]) | Activity (MDA-MB-231 [17]) | Activity (MDA-MB-231 [18]) | Activity (MDA-MB-231 [19]) | Activity (MDA-MB-231 [20]) | Activity (MDA-MB-231 [21]) | Activity (MDA-MB-231 [22]) | Activity (MDA-MB-231 [26]) | Activity (MDA-MB-231 [27]) | Activity (MDA-MB-231 [28])
48.26%: Activity (MDA-MB-231 [14])
17.3%: Activity (MDA-MB-231 [16])
5.91: pIC50 (MDA-MB-468)
> 40000 nM: IC50 at 72 h [2]
6.95: pIC50 [12]
5.93: pIC50 (HCC1937)
6.01: pIC50 (MDA-MB-436)
inactive: Activity (MDA-MB-231 [8]) | Activity (MDA-MB-231 [9])
6.12: pIC50 (MDA-MB-231 [1])
Non-Toxic: Activity [24] | Activity [25] | Activity [29] | Activity [30] | Activity [31] | Activity [32] | Activity [33]
61.3%: inhibition in vivo at 38 mg/kg (MDA-MB-231 [23])
